Test results reported in patent EP0048954A2, “Beta-lactam compounds, process for the preparation thereof and intermediate products for the preparation thereof” (SAGAMI CHEMICAL RESEARCH CENTER, priority 1980, dated 1982).
Values after ≈ are worked out from the molar mass of the structure shown. Values joined by “and” are separate entries in the source; they are usually repeats but may differ in a detail not shown here. Identical values can stand only once. Counter-ions that a name gives are not always drawn. Like-named read-outs stand apart in the source and are kept apart here.

Columns and labels:
Assay in all cases: Antibacterial activity, minimum inhibition concentration (method of The Chemotherapy Association, Japan)
Type in all cases: cell-based
Proteus vulgaris OX-19 = conditions: for MIC: Proteus vulgaris; for minimum inhibition concentration: strain H: Proteus vulgaris OX-19
Excerpt: (§1) The abbreviations A to P will be used in the following Tables 2 to 8.
(§2) Test results are shown in terms of the minimum inhibition concentration (µg/mℓ.) in the following Tables 2 to 8.

Proteus rettgeri NIH-96 = conditions: for MIC: Providencia rettgeri; for minimum inhibition concentration: strain I: Proteus rettgeri NIH-96
Excerpt: as §1, §2

[1] = tested on: Citrobactor freundii NIH-10018 -68; conditions: for MIC: read-out: minimum inhibition concentration
Method: (§3) Antibacterial activities of the compounds according to this invention, which had been prepared in the preceding Examples, were measured according to the method prescribed by The Committee of Amendment of "The method for measurement of the minimum inhibition concentration", The Chemotherapy Association, Japan (See Chemotherapy, Vol. 22, No. 6, pp. 1126 - 1128 (1974) and Vol. 29, No. 1, pp. 76 - 79 (1981)).
as §1, §2

Serratia marcescens 1023 = tested on: Serratia marcescens 1023
Method: as §3, §1, §2

Proteus morgani Kono = conditions: for MIC: read-out: minimum inhibition concentration
Method: as §3, §1, §2

[2] = tested on: Pseudomonas aeruginosa NCTC-10490; conditions: for MIC: Pseudomonas aeruginosa; for minimum inhibition concentration: strain M: Pseudomonas aeruginosa NCTC-10490
Method: as §3, §1, §2

[3] = tested on: Staphylococcus aureus 6538-P
Method: as §3, §1, §2

[4] = tested on: Proteus mirabillis B-30-2 IFO-3849
Method: as §3, §1, §2

[5] = tested on: Salmonella typhimurium 3173; conditions: for MIC: Salmonella enterica, TYPHIMURIUM
Method: as §3, §1, §2

Klebsiella pneumoniae = conditions: for MIC: Klebsiella pneumoniae
Method: as §3, §1, §2

[6] = tested on: Enterobactor cloacae NCTC-9394; conditions: for MIC: read-out: minimum inhibition concentration
Method: as §3, §1, §2

Escherichia coli NIHJ = conditions: for MIC: Escherichia coli, read-out: minimum inhibition concentration
Method: as §3, §1, §2

[7] = tested on: Serratia marcescens IFO-3736; conditions: for MIC: Serratia marcescens; for minimum inhibition concentration: strain F: Serratia marcescens IFO-3736
Method: as §3, §1, §2

[8] = tested on: Bacillus subtilis ATCC 6633; conditions: for MIC: Bacillus subtilis; for minimum inhibition concentration: strain B: Bacillus subtilis ATCC 6633
Method: as §3, §1, §2

Escherichia coli NIHJC-2 = conditions: for MIC: Escherichia coli; for minimum inhibition concentration: strain L: Escherichia coli NIHJC-2
Method: as §3, §1, §2

[9] = NCTC10490, read-out: minimum inhibition concentration
[10] = read-out: minimum inhibition concentration, strain G: Proteus mirabillis B-30-2 IFO-3849
[11] = read-out: minimum inhibition concentration, strain D: Salmonella typhimurium 3173
[12] = IFO3736, read-out: minimum inhibition concentration
[13] = NIHJC2, read-out: minimum inhibition concentration
[14] = NCTC10490, strain M: Pseudomonas aeruginosa NCTC-10490, read-out: minimum inhibition concentration
[15] = strain A: Staphylococcus aureus 6538-P, read-out: minimum inhibition concentration
[16] = strain K: Escherichia coli NIHJ
[17] = strain O: Citrobactor freundii NIH-10018 -68
[18] = strain A: Staphylococcus aureus 6538-P
[19] = strain G: Proteus mirabillis B-30-2 IFO-3849
[20] = strain D: Salmonella typhimurium 3173
[21] = strain C: Klebsiella pneumoniae
[22] = strain N: Enterobactor cloacae NCTC-9394
[23] = OX19, strain H: Proteus vulgaris OX-19, read-out: minimum inhibition concentration
[24] = NIH96, strain I: Proteus rettgeri NIH-96, read-out: minimum inhibition concentration
[25] = strain G: Proteus mirabillis B-30-2 IFO-3849, read-out: minimum inhibition concentration
[26] = strain D: Salmonella typhimurium 3173, read-out: minimum inhibition concentration
[27] = strain C: Klebsiella pneumoniae, read-out: minimum inhibition concentration
[28] = IFO3736, strain F: Serratia marcescens IFO-3736, read-out: minimum inhibition concentration
[29] = ATCC6633, strain B: Bacillus subtilis ATCC 6633, read-out: minimum inhibition concentration
[30] = NIHJC2, strain L: Escherichia coli NIHJC-2, read-out: minimum inhibition concentration

Row | Compound | MIC [2, 14] [µg/mL] | MIC [3, 15] [µg/mL] | MIC (Escherichia coli NIHJ; [16]) [µg/mL] | minimum inhibition concentration (Proteus vulgaris OX-19) [µg/mL] | minimum inhibition concentration [3, 18] [µg/mL] | minimum inhibition concentration [4, 19] | minimum inhibition concentration [5, 20] [µg/mL] | minimum inhibition concentration [6, 22] [µg/mL] | minimum inhibition concentration (Escherichia coli NIHJC-2) [µg/mL] | MIC (Proteus vulgaris OX-19; [23]) [µg/mL] | MIC (Proteus rettgeri NIH-96; [24]) [µg/mL] | MIC [1, 17] [µg/mL] | MIC (Proteus morgani Kono; strain J: Proteus morgani Kono) [µg/mL] | MIC [4, 25] [µg/mL] | MIC [5, 26] [µg/mL] | MIC (Klebsiella pneumoniae; [27]) [µg/mL] | MIC [6, 22] [µg/mL] | MIC [7, 28] [µg/mL] | MIC [8, 29] [µg/mL] | MIC (Escherichia coli NIHJC-2; [30]) [µg/mL] | further results
1 | CC(=O)OCC1=C(C(=O)[O-])N2C(=O)C(NC(=O)C(=CCl)c3csc(N)n3)[C@H]2SC1.[Na+] (stereo partly drawn) [Compound 20, 7-[2-chloromethylene-2-(2-aminothiazol-4-yl)acetamido]-3-acetoxymethyl-3-cephem-4-carboxylic acid sodium salt] | – | – | – | – | – | – | – | – | – | – | – | – | – | – | – | – | – | – | – | – | MIC (Proteus vulgaris OX-19; OX19, read-out: minimum inhibition concentration, strain H: Proteus vulgaris OX-19): 0.2 µg/mL; MIC (Proteus rettgeri NIH-96; NIH96, read-out: minimum inhibition concentration, strain I: Proteus rettgeri NIH-96): 0.025 µg/mL; MIC [1]: 1.56 µg/mL; MIC (Serratia marcescens 1023; Serratia marcescens, 1023, read-out: minimum inhibition concentration, strain E: Serratia marcescens 1023): 12.5 µg/mL; MIC (Proteus morgani Kono): 1.56 µg/mL; MIC [2, 9]: 6.25 µg/mL; MIC ([3]; Staphylococcus aureus, 6538P, read-out: minimum inhibition concentration, strain A: Staphylococcus aureus 6538-P): 1.56 µg/mL; MIC [4, 10]: 1.56 µg/mL; MIC [5, 11]: 3.12 µg/mL; MIC (Klebsiella pneumoniae; read-out: minimum inhibition concentration, strain C: Klebsiella pneumoniae): 1.56 µg/mL; MIC [6]: 0.78 µg/mL; MIC (Escherichia coli NIHJ): 0.05 µg/mL; MIC [7, 12]: 6.25 µg/mL; MIC ([8]; ATCC6633, read-out: minimum inhibition concentration, strain B: Bacillus subtilis ATCC 6633): 6.25 µg/mL; MIC (Escherichia coli NIHJC-2; [13]): 3.12 µg/mL
2 | CC(=O)OCC1=C(C(=O)O)N2C(=O)C(NC(=O)C(=C(Cl)Cl)c3ccccc3)[C@H]2SC1 (stereo partly drawn) [Compound 38, 7-(2-dichloromethylene-2-phenylacetamido)-3-acetoxymethyl-3-cephem-4-carboxylic acid] | > 100 | 1.56 (≈ 3.31 µM) | 3.1 (≈ 6.58 µM) | – | – | – | – | – | – | – | – | – | – | – | – | – | – | – | – | – | –
3 | 7-[2-dichloromethylene-2-(2-aminothiazol-4-yl)acetamido]-3-(l-carboxymethyltetrazol-5-yl)thiomethyl-3-cephem-4-carboxylic acid disodium salt [7-(3)] | – | – | – | 0.1 | 6.25 | 1.56 µg/mL | 6.25 | 3.125 | 25 | – | – | – | – | – | – | – | – | – | – | – | minimum inhibition concentration (Proteus rettgeri NIH-96): <0.025 µg/mL; minimum inhibition concentration [1, 17]: 12.5 µg/mL; minimum inhibition concentration (Proteus morgani Kono; strain J: Proteus morgani Kono): 3.125 µg/mL; minimum inhibition concentration [2]: 6.25 µg/mL; minimum inhibition concentration (Klebsiella pneumoniae; [21]): 12.5 µg/mL; minimum inhibition concentration (Escherichia coli NIHJ; [16]): <0.025 µg/mL; minimum inhibition concentration [7]: 25 µg/mL; minimum inhibition concentration [8]: 12.5 µg/mL
4 | CC1=C(C(=O)O)N2C(=O)C(NC(=O)C(=C(Cl)Cl)c3csc(N)n3)C2SC1 (stereo not drawn) [8-(3), 7-[2-dichloromethylene-2-(2-aminothiazol-4-yl)-acetamido]-desacetoxycephalosporanic acid sodium salt] | > 100 | 25 | 6.25 | – | – | – | – | – | – | 12.5 | 0.2 | > 100 | > 100 | 100 | > 100 | > 100 | 100 | > 100 | 100 | 100 | –
5 | Cn1nnnc1SCC1=C(C(=O)O)N2C(=O)C(NC(=O)C(=C(Cl)Cl)c3ccco3)C2SC1 (stereo not drawn) [Compound 1, 7-[2-dichloromethylene-2-(2-furyl)acetamido]-3-(1-methyl-IH-tetrazol-5-yl)thiomethyl-3-cephem-4-carboxylic acid] | 3.12 (≈ 6.04 µM) | 0.39 (≈ 0.754 µM) | < 0.025 | – | – | – | – | – | – | 0.2 (≈ 0.387 µM) | < 0.025 | 12.5 (≈ 24.2 µM) | 50 (≈ 96.6 µM) | 50 (≈ 96.6 µM) | 12.5 (≈ 24.2 µM) | 25 (≈ 48.3 µM) | 6.25 (≈ 12.1 µM) | 50 (≈ 96.6 µM) | 1.56 (≈ 3.02 µM) | 25 (≈ 48.3 µM) | MIC (Serratia marcescens 1023; Serratia marcescens, 1023, strain E: Serratia marcescens 1023, read-out: minimum inhibition concentration): 1.56 µg/mL (≈ 3.02 µM)
6 | 7-[2-chloromethylene-2-(2-aminothiazol-4-yl)acetamido]-3-[(2,5-dihydro-6-hydroxy-2-methyl-5-oxo-as-triazin-3-yl)thiomethyl-3-cephem-4-carboxylic acid disodium salt [Compound 22] | – | – | – | 0.1 | 0.78 | 0.39 µg/mL | 1.56 | 0.39 | 3.125 | – | – | – | – | – | – | – | – | – | – | – | minimum inhibition concentration [1, 17]: 1.56 µg/mL; minimum inhibition concentration (Serratia marcescens 1023; strain E: Serratia marcescens 1023): 6.25 µg/mL; minimum inhibition concentration (Proteus morgani Kono; strain J: Proteus morgani Kono): 0.39 µg/mL; minimum inhibition concentration [2]: 6.25 µg/mL; minimum inhibition concentration (Klebsiella pneumoniae; [21]): 0.78 µg/mL; minimum inhibition concentration (Escherichia coli NIHJ; [16]): <0.00625 µg/mL; minimum inhibition concentration [7]: 1.56 µg/mL; minimum inhibition concentration [8]: 6.25 µg/mL
7 | Cn1nnnc1SCC1=C(C(=O)O)N2C(=O)C(NC(=O)C(=C(Cl)Cl)c3csc(N)n3)C2SC1 (stereo not drawn) [6-(3), 7-[2-dichloromethylene-(2-aminothiazol-4-yl)-acetamido]-3-(l-methyl-lH-tetrazol-5-yl)thiomethyl-3-cephem-4-carboxylic acid sodium salt] | – | – | – | 0.1 | 0.78 | – | – | – | – | – | – | – | – | – | – | – | – | – | – | – | minimum inhibition concentration (Proteus rettgeri NIH-96): <0.025 µg/mL; minimum inhibition concentration ([5]; strain D: Salmonella typhimurium 3173, sodium salt): 3.125 µg/mL; minimum inhibition concentration (Klebsiella pneumoniae; strain C: Klebsiella pneumoniae, sodium salt): 6.25 µg/mL; minimum inhibition concentration (Escherichia coli NIHJ; strain K: Escherichia coli NIHJ, sodium salt): 0.05 µg/mL; minimum inhibition concentration ([8]; sodium salt): 25 µg/mL
8 | CN(C)CCn1nnnc1SCC1=C(C(=O)O)N2C(=O)C(NC(=O)C(=C(Cl)Cl)c3csc(N)n3)C2SC1 (stereo not drawn) [10-(1), 7-[2-dichloromethylene-2-(2-aminothiazol-4-yl)-acetamido]-3-[l-(2-dimethylaminoethyl)-lH-tetrazol-5-yl]thiomethyl-3-cephem-4-carboxylic acid] | 25 (≈ 41.2 µM) | 3.12 (≈ 5.15 µM) | 0.1 (≈ 0.165 µM) | – | – | – | – | – | – | 0.78 (≈ 1.29 µM) | 0.05 (≈ 0.0824 µM) | 12.5 (≈ 20.6 µM) | 12.5 (≈ 20.6 µM) | 25 (≈ 41.2 µM) | 12.5 (≈ 20.6 µM) | 12.5 (≈ 20.6 µM) | 3.12 (≈ 5.15 µM) | 50 (≈ 82.4 µM) | 12.5 (≈ 20.6 µM) | 12.5 (≈ 20.6 µM) | –
9 | CC(=O)OCC1=C(C(=O)O)N2C(=O)[C@@H](NC(=O)Cc3cccs3)[C@H]2SC1 [Cephalo-thin, reference compound] | – | – | – | – | – | 25 µg/mL and 12.5 µg/mL | 6.25 (≈ 15.8 µM) | >100 | 50 (≈ 126 µM) | – | – | – | – | – | – | – | 50 (≈ 126 µM) | – | – | 25 (≈ 63.1 µM) | MIC (Proteus morgani Kono): > 100 µg/mL; MIC [2, 9]: > 100 µg/mL; MIC [4, 10]: 12.5 µg/mL (≈ 31.5 µM); MIC [5, 11]: 3.17 µg/mL (≈ 8.01 µM); MIC (Escherichia coli NIHJ): 12.5 µg/mL (≈ 31.5 µM); MIC [7, 12]: > 100 µg/mL; MIC (Escherichia coli NIHJC-2; [13]): 12.5 µg/mL (≈ 31.5 µM)
10 | CSc1nnc(SCC2=C(C(=O)O)N3C(=O)C(NC(=O)C(=C(Cl)Cl)c4csc(N)n4)C3SC2)s1 (stereo not drawn) [9-(2), 7-[2-dichloromethylene-2-(aminothiazol-4-yl)-acetamido]-3-(2-methylthio-l,3,4-thiadiazol-5-yl) thiomethyl-3-cephem-4-carboxylic acid sodium salt] | 12.5 | 0.78 | < 0.025 | – | – | – | – | – | – | 0.2 | < 0.025 | 12.5 | 12.5 | 25 | 12.5 | 12.5 | 3.12 | 50 | 3.12 | 25 | –
